Values joined by “and” are separate entries in the source; they are usually repeats but may differ in a detail not shown here. Identical values can stand only once.

Assay [1] relates to cotton pellet-induced granuloma. Description: Cotton pellet-induced granuloma bioassay. It counts as in vivo, rat. As to conditions: for ED50: rat cotton pellet granuloma; for The anti-inflammatory activity ED50: rat, compound-impregnated cotton pellets implanted s.c., 7 days, dose response 4, 7, 10 and 15 μmol. As to the method: An animal model cotton pellet-induced granuloma bioassay was used to determine ED50 for the compounds (2)-(4). Adult male Sprague Dawley rats (120-140 g), were used in the cotton pellet-induced granuloma bioassays. The rats were acclimated one week prior to use and allowed unlimited access to standard rat chow and water. Prior to the start of the experiment, the animals were randomly divided into groups of six rats each. Cotton pellet (35±1 mg) cut from dental rolls were impregnated with 0.2 ml (containing 0.01 mmol) of a solution of each of compounds (2)-(4) in chloroform, and the solvent was allowed to evaporate. Each cotton pellet was subsequently injected with 0.2 ml of an aqueous solution of antibiotics (1 mg penicillin G and 1.3 mg dihydrostreptomycin/ml). Two pellets were implanted subcutaneously, one in each axilla of the rat, under mild general anesthesia. One group of animals received the standard reference pharmaceutical indomethacin and the antibiotics at the same level. Pellets containing only the antibiotics were similarly implanted in control rats. Seven days later, the animals were sacrificed and the two cotton pellets, with adhering granulomas, were removed, dried for 48 h at 60° C. and weighed. The increment in dry weight (difference between the initial and final weight) was taken as a measure of the dry weight of granuloma±SEM. The dry weight of granuloma and the percentage reduction in dry weight of granuloma relative to the respective control value were calculated for all rats. The ED50 values were determined through dose response curves using doses of 4, 7, 10 and 15 μmol for each compound.

In the next assay the target is Human COX-1 (Homo sapiens, UniProt P23219). Description: Human COX-1 enzymatic assay. The settings on record: 5 min pre-incubation, 2 min incubation with [14C]-arachidonic acid at 24° C. It counts as biochemical. As to the method:
(§1) Human COX-1 and COX-2 activities were determined as described by Wakitani et al. 0.2 ml of 100 mmol Tris HCl buffer (pH 8) containing hematin (2 mmol) and tryptophan (5 mmol) as cofactors. The reaction mixture was pre-incubated with each test compound individually for 5 min at 24° C. [14C]-arachidonic acid (100.00 dpm, 30 mmol) was added to the mixture and then incubated for 2 min (for COX-1) or 45 min (for COX-2) at 24° C. The reaction was stopped by the addition of 400 μl of a solution composed of Et2O/MeOH/1 M citric acid (30:4:1, v/v/v). After centrifugation of the mixture at 1700×/g for 5 min at 4° C., 50 μl of the upper phase was applied to a thin layer chromatography plate. Thin layer chromatography was performed at 4° C. with solvent system of Et2O/MeOH/AcOH (90:2:0.1, v/v/v). Enzyme activity was calculated from the percent conversion of arachidonic acid to PGH2 and its de-composition products, using radiometric photographic system.

In another assay the test system is pyloric ligation ulcer. Description: Pyloric ligation ulcer model (antiulcer activity). It counts as in vivo, rat. The settings on record: rats, oral 30 min prior to pyloric ligation, 4 h, compounds 100 mg/kg, omeprazole 40 mg/kg; for Free acid / Total acid: gastric contents. As to the method:
Pyloric ligation ulcer models were used to test each of compounds (2)-(4) for antiulcer activity. Male rats (140 and 175 g) were selected for pyloric ligation ulcer model experiments and divided into eleven groups consisting of six animals each. The rats were fasted overnight. One group received normal saline 2 ml/kg (negative control), the second group received omeprazole 40 mg/kg (positive control) and the other groups received each of the compounds (2)-(4) (100 mg/kg) by oral route 30 min prior to pyloric ligation. Animals were sacrificed 4 h later and their stomachs were opened to collect the gastric contents. The gastric contents were centrifuged at 1000 rpm for 10 min. One ml of the supernatant liquid was pipetted out and diluted to a total volume of 10 ml with distilled water. The solution was titrated against 0.01 N sodium hydroxide solution using Topfer's reagent to indicate the end point when the solution turned […]. The volume of NaOH consumed was taken as corresponding to the free acidity. Titration was further continued until the solution regained pink color. The volume of sodium hydroxide solution required to achieve the pink color was noted and total acidity calculated. After opening the stomach, the ulcer index was calculated.
The results are expressed as mean±SEM. The difference between groups was determined using the one way analysis of variance (ANOVA) followed by Dunnett's test. P<0.05 was considered significant.

The next assay concerns the target T1, Human COX-2 (Homo sapiens, UniProt P35354).
T1 sequence (P35354 18-604): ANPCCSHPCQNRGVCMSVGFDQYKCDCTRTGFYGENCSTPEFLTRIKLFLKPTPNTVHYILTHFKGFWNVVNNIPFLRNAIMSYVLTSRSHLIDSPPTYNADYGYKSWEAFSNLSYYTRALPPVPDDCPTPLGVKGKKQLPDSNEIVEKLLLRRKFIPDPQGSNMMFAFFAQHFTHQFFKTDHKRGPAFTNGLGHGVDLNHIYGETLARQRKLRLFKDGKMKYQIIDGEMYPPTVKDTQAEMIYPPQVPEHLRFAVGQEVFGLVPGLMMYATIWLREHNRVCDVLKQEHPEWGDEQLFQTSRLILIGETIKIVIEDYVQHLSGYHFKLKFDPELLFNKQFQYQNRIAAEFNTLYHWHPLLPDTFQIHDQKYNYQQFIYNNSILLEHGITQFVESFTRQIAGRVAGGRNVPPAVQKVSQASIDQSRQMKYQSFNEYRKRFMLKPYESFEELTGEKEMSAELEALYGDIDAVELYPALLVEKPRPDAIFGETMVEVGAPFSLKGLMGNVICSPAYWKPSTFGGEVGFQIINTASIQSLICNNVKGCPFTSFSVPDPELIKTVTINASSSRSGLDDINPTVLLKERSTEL
In words: Human COX-2 enzymatic assay. It counts as biochemical. As to conditions: for IC50: 5 min pre-incubation, 45 min incubation with [14C]-arachidonic acid at 24° C.; for Approximate selectivity ratio COX-1/COX-2: ratio of COX-1 IC50 to COX-2 IC50. As to the method:
as §1

Sequence of Human COX-1 (P23219 24-599): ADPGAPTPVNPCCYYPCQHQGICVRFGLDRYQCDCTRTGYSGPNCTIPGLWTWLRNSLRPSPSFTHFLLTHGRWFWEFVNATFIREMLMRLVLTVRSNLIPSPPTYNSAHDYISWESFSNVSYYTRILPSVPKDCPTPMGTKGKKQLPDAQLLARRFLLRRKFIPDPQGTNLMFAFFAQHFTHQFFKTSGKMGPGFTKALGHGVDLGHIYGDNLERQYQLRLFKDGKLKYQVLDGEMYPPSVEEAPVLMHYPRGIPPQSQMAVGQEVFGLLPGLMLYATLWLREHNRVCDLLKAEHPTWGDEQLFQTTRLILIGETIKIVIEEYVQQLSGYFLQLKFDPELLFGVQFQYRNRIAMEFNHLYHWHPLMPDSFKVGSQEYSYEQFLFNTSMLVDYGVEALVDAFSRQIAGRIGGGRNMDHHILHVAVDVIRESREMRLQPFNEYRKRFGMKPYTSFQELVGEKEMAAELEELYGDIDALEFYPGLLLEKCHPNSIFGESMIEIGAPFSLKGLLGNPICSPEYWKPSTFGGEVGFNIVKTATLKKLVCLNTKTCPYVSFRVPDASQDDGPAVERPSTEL

As usually defined, the IC50 is the point on the concentration scale where inhibition reaches its midpoint. Lower therefore signals inhibition by little substance. As to `Cn1nc2c(c1-c1ccc(F)cc1)CC1(C)C(CCC3(C)C1C(=O)C=C1C4CC5(C)CC(OC5=O)C4(C)CCC13C)C2(C)C` (stereo not drawn) [Compound 4, 2-(4-fluorobenzylidene)-3,11-dioxo-18β-olean[3,2-c]-1′H-5′-(4-fluorophenyl)-N-methylpyrazoline-12-en-30-oic acid (30→22β) lactone], in assay [1], the ED50 is 1.35 µmol and the “The anti-inflammatory activity ED50” value was 1.35 ± 0.0034 µmol. Besides, inhibition against Human COX-1 was half-maximal at 345 µM (IC50). For the same compound, in the assay with pyloric ligation ulcer, the Free acid amounted to 0.06 mEq/L, the Total acid came out at 0.06 mEq/L and the “Ulcer Index” value turned out to be 1.04. For the same compound, at Human COX-2, the IC50 was 0.087 µM and the “Approximate selectivity ratio COX-1/COX-2” value is listed as 3965.52.
`Cn1nc2c(c1-c1ccc(F)cc1)CC1(C)C(CCC3(C)C1C(=O)C=C1C4CC(C)(C(=O)O)CCC4(C)CCC13C)C2(C)C` (stereo not drawn) [Compound 3, 2-(4-fluorobenzylidene)-3,11-dioxo-18β-olean[3,2-c]-1′H-5′-(4-fluorophenyl)-N-methylpyrazoline-12-en-30-oic acid]: in assay [1], the ED50 stood at 1.47 µmol and the “The anti-inflammatory activity ED50” value stood at 1.47 ± 0.0021 µmol. Further, the IC50 against Human COX-1 worked out at 312 µM. For the same compound, in the assay with pyloric ligation ulcer, the Free acid came to 0.08 mEq/L, the Total acid is listed as 0.08 mEq/L and the “Ulcer Index” value is given as 1.12. Further, on Human COX-2, inhibition was half-maximal at 0.091 µM (IC50); the “Approximate selectivity ratio COX-1/COX-2” value is 3438.57 and 3428.57.
As to `CC1(C(=O)O)CCC2(C)CCC3(C)C(=CC(=O)C4C5(C)C/C(=C\c6ccc(F)cc6)C(=O)C(C)(C)C5CCC43C)C2C1` (stereo not drawn) [Compound 2, 2-(4-fluorobenzylidene)-3,11-dioxo-18β-olean-12-en-30-oic acid], in assay [1], the ED50 amounted to 1.52 µmol and the “The anti-inflammatory activity ED50” value stood at 1.52 ± 0.0019 µmol. Further, the IC50 on Human COX-1 was determined as 298 µM. Further, in the assay on pyloric ligation ulcer, the Free acid is reported as 0.09 mEq/L, the Total acid is 0.09 mEq/L and the “Ulcer Index” value stood at 1.16. Moreover, on Human COX-2, inhibition was half-maximal at 0.109 µM (IC50) and the “Approximate selectivity ratio COX-1/COX-2” value turned out to be 2733.94.

The record behind these values is patent US9896476B1, “Glycyrrhetic acid derivatives” (KING SAUD UNIVERSITY, priority 2017, dated 2018).
